Common to all, as to format: physicochemical
Data set [1] can be described thus: Salt screening: XRPD of wet cake, after drying under vacuum at 50° C., after exposure to 97% relative humidity. Conditions: for stability of salt solid form to humidification: 97% (>95%) relative humidity; for stability of salt solid form to humidification / stability of salt solid form to drying: XRPD; for stability of salt solid form to drying: vacuum at 50° C.; for XRPD Pattern Dry / XRPD Pattern Humid: salt screening; for XRPD Pattern Dry: after drying; for XRPD Pattern Humid: after humidity exposure. As for the experimental part:
Stock solutions of counter-ion were prepared in EtOH, MeOH, or EtOAc, depending on solubility. […] The solvent was allowed to evaporate at room temperature over the weekend and then placed at 50° C. under vacuum for 3 hours to remove any remaining solvent. Approximately 25 volumes solvent (0.6 mL) was added to each vial for screening. The three solvents selected were EtOH, EtOAc, and IPA:water (9:1 vol). […] XRPD analysis was done in three stages. XRPD of the wet cake was done for all samples. Unique solids were then left on XRPD plates and dried under vacuum at 50° C. XRPD of unique dry solids was then done. […] The humid environment was generated by placing a beaker of saturated potassium sulfate in water in a sealed container. All XRPD patterns were compared to counter ion XRPD patterns and known free base patterns. Where solids were not of sufficient quantity to isolate, the solvent was evaporated at room temperature, the material dried at 50° C. under active vacuum for 3 hours, and then reslurried at room temperature in either MtBE or IPAc overnight after heating to 45° C. for 30 minutes.

Data set [2] is described as follows: Humidity exposure, 75% relative humidity at 40° C. for one week, XRPD.
Data set [3] is described as follows: One week (7 days) slurry stability by XRPD and HPLC.

Counter-ions that a name gives are not always drawn.

`CO[C@]1(C(=O)N[C@@H](C)c2ccc(-n3cc(F)cn3)nc2)CC[C@H](c2nc(C)cc(Nc3cc(C)[nH]n3)n2)CC1` (single isomer, unassigned) [Pattern 12-G+2 peaks, pralsetinib]: in data set [1], the “stability of salt solid form to humidification” value (“stability … to humidification” for short) is on record as “reverted to Pattern 12-G” and the “stability of salt solid form to drying” value is “converted to Pattern 12-H”.
Regarding `CO[C@]1(C(=O)N[C@@H](C)c2ccc(-n3cc(F)cn3)nc2)CC[C@H](c2nc(C)cc(Nc3cc(C)[nH]n3)n2)CC1` [Fumarate, pralsetinib], in data set [1], the “stability of salt solid form to drying” value is “changed”.
As for `COC1(C(=O)NC(C)c2ccc(-n3cc(F)cn3)nc2)CCC(c2nc(C)cc(Nc3cc(C)[nH]n3)n2)CC1.Cl` (stereo not shown) [HCl 5-B], in data set [2] (XRPD pattern after exposure), the “Stability 40° C./75% RH” value is listed as “Stable”. In addition, in data set [3], the “Stability 7-day slurry” value is recorded as “Stable”.
`CO[C@]1(C(=O)N[C@@H](C)c2ccc(-n3cc(F)cn3)nc2)CC[C@@H](c2nc(C)cc(Nc3cc(C)[nH]n3)n2)CC1.Cl` [HCl]: in data set [1] (solvent EtOAc), the “XRPD Pattern Dry” value is on record as 5-C + broad and the “XRPD Pattern Humid” value is 5-C + trace. In data set [1] (solvent IPA:water (9:1 vol)), the “XRPD Pattern Humid” value is recorded as 5-C + trace.
Take `CS(=O)(=O)O` [MSA]: in data set [1] (solvent IPA:water (9:1 vol)), the “XRPD Pattern Dry” value is 2-B + extra.
As for `CO[C@]1(C(=O)N[C@@H](C)c2ccc(-n3cc(F)cn3)nc2)CC[C@H](c2nc(C)cc(Nc3cc(C)[nH]n3)n2)CC1` [Pyruvate, pralsetinib], in data set [1], the “stability … to humidification” value is “changed form”.
Regarding `CO[C@]1(C(=O)N[C@@H](C)c2ccc(-n3cc(F)cn3)nc2)CC[C@H](c2nc(C)cc(Nc3cc(C)[nH]n3)n2)CC1` [Solid Form 1-A, pralsetinib], the “stability … to humidification” value in data set [1] (listed as solid form 1-A) is “peak shift”.
`CO[C@]1(C(=O)N[C@@H](C)c2ccc(-n3cc(F)cn3)nc2)CC[C@H](c2nc(C)cc(Nc3cc(C)[nH]n3)n2)CC1` [Solid Form 1-B, pralsetinib]: the “stability … to humidification” value in data set [1] (listed as solid form 1-B) is listed as “converted to Pattern 1-C”.
On to `CO[C@]1(C(=O)N[C@@H](C)c2ccc(-n3cc(F)cn3)nc2)CC[C@H](c2nc(C)cc(Nc3cc(C)[nH]n3)n2)CC1` [Solid Form 4-A, pralsetinib], for which, in data set [1] (listed as Pattern 4-A), the “stability … to humidification” value is recorded as “stable” and the “stability of salt solid form to drying” value is recorded as “Pattern 4-C”.
Consider `CO[C@]1(C(=O)N[C@@H](C)c2ccc(-n3cc(F)cn3)nc2)CC[C@H](c2nc(C)cc(Nc3cc(C)[nH]n3)n2)CC1` [Solid Form 4-B, pralsetinib], for which, in data set [1] (listed as Pattern 4-B), the “stability … to humidification” value is reported as “stable”.
On to `CO[C@]1(C(=O)N[C@@H](C)c2ccc(-n3cc(F)cn3)nc2)CC[C@H](c2nc(C)cc(Nc3cc(C)[nH]n3)n2)CC1` [Solid Form 5-A, pralsetinib], for which the “stability … to humidification” value in data set [1] (listed as Form 5-A), in data set [1] (listed as Pattern 5-A) and in data set [1] (listed as hydrochloride (5-A)) was “deliquesced” throughout. Moreover, the “stability of salt solid form to drying” value in data set [1] (listed as Form 5-A) and in data set [1] (listed as Pattern 5-A) was “stable” throughout.
Take `CO[C@]1(C(=O)N[C@@H](C)c2ccc(-n3cc(F)cn3)nc2)CC[C@H](c2nc(C)cc(Nc3cc(C)[nH]n3)n2)CC1` [Solid Form 5-B, pralsetinib]: in data set [1] (listed as Pattern 5-B), the “stability … to humidification” value is given as “stable” and the “stability of salt solid form to drying” value is “dried to Pattern 5-C”. In data set [1] (listed as Form 5-B), the “stability of salt solid form to drying” value was “converted to Form 5-C”. Further, the “stability slurrying 7 days in EtOAc” value in data set [3] (EtOAc, XRPD and HPLC, listed as Pattern 5-B) is given as “stable”. Moreover, the “stability slurrying 7 days in EtOH” value in data set [3] (EtOH, XRPD and HPLC, listed as Pattern 5-B) was “stable”. In addition, in data set [3] (EtOH:water (95:5 vol), XRPD and HPLC, listed as Pattern 5-B), the “stability slurrying 7 days in EtOH:water (95:5 vol)” value is “stable”.
On to `CO[C@]1(C(=O)N[C@@H](C)c2ccc(-n3cc(F)cn3)nc2)CC[C@H](c2nc(C)cc(Nc3cc(C)[nH]n3)n2)CC1` [Solid Form 5-C, pralsetinib], for which the “stability … to humidification” value in data set [1] (listed as Form 5-C) is recorded as “stable”.
For the molecule `CO[C@]1(C(=O)N[C@@H](C)c2ccc(-n3cc(F)cn3)nc2)CC[C@H](c2nc(C)cc(Nc3cc(C)[nH]n3)n2)CC1` [Solid Form 6-A, pralsetinib], the “stability … to humidification” value in data set [1] (listed as Pattern 6-A) was “became amorphous with one peak”.
`CO[C@]1(C(=O)N[C@@H](C)c2ccc(-n3cc(F)cn3)nc2)CC[C@H](c2nc(C)cc(Nc3cc(C)[nH]n3)n2)CC1` [Solid Form 8-A, pralsetinib]: in data set [1] (listed as Pattern 8-A), the “stability … to humidification” value was “stable” and the “stability of salt solid form to drying” value is given as “stable”. Also, in data set [1] (listed as maleate 8-A), the “stability … to humidification” value is reported as “stable” and the “stability of salt solid form to drying” value is recorded as “stable”.
With `CO[C@]1(C(=O)N[C@@H](C)c2ccc(-n3cc(F)cn3)nc2)CC[C@H](c2nc(C)cc(Nc3cc(C)[nH]n3)n2)CC1` [Solid Form 9-A, pralsetinib], in data set [1] (listed as 9-A), the “stability … to humidification” value is recorded as “stable” and the “stability of salt solid form to drying” value is given as “stable”. Moreover, in data set [1] (listed as oxalate 9-A), the “stability … to humidification” value is recorded as “stable” and the “stability of salt solid form to drying” value is reported as “stable”.
Consider `CO[C@]1(C(=O)N[C@@H](C)c2ccc(-n3cc(F)cn3)nc2)CC[C@H](c2nc(C)cc(Nc3cc(C)[nH]n3)n2)CC1` [Solid Form 10-A+B, pralsetinib], for which, in data set [1] (listed as 10-A+B), the “stability … to humidification” value is listed as “stable” and the “stability of salt solid form to drying” value is “stable”.
Regarding `CO[C@]1(C(=O)N[C@@H](C)c2ccc(-n3cc(F)cn3)nc2)CC[C@H](c2nc(C)cc(Nc3cc(C)[nH]n3)n2)CC1` [Solid Form 12-B, pralsetinib], the “stability of salt solid form to drying” value in data set [1] (listed as Pattern 12-B) is listed as “stable”.
Take `CO[C@]1(C(=O)N[C@@H](C)c2ccc(-n3cc(F)cn3)nc2)CC[C@H](c2nc(C)cc(Nc3cc(C)[nH]n3)n2)CC1` [Solid Form 12-C, pralsetinib]: the “stability of salt solid form to drying” value in data set [1] (listed as Pattern 12-C) is “stable”.
`CO[C@]1(C(=O)N[C@@H](C)c2ccc(-n3cc(F)cn3)nc2)CC[C@H](c2nc(C)cc(Nc3cc(C)[nH]n3)n2)CC1` [Solid Form 12-D, pralsetinib]: in data set [1] (listed as Pattern 12-D), the “stability of salt solid form to drying” value is given as “Pattern 12-E”.
With `CO[C@]1(C(=O)N[C@@H](C)c2ccc(-n3cc(F)cn3)nc2)CC[C@H](c2nc(C)cc(Nc3cc(C)[nH]n3)n2)CC1` [citrate, pralsetinib], the “stability … to humidification” value in data set [1] and in data set [1] (listed as Citrate) was “deliquesced” in each case.
For `CO[C@]1(C(=O)N[C@@H](C)c2ccc(-n3cc(F)cn3)nc2)CC[C@H](c2nc(C)cc(Nc3cc(C)[nH]n3)n2)CC1` [gentisate, pralsetinib], in data set [1], the “stability … to humidification” value is listed as “deliquesced”.
Regarding `CO[C@]1(C(=O)N[C@@H](C)c2ccc(-n3cc(F)cn3)nc2)CC[C@H](c2nc(C)cc(Nc3cc(C)[nH]n3)n2)CC1` [hydrochloride, pralsetinib], in data set [1], the “stability … to humidification” value is on record as “deliquesced”. The “stability on exposure to 75% relative humidity at 40° C.” value in data set [2] (one week / 7 days, XRPD, listed as HCl salt) is “stable”.
`CO[C@]1(C(=O)N[C@@H](C)c2ccc(-n3cc(F)cn3)nc2)CC[C@H](c2nc(C)cc(Nc3cc(C)[nH]n3)n2)CC1` [saccharine salt, pralsetinib]: the “stability … to humidification” value in data set [1] was “changed form”.
For the molecule `CO[C@]1(C(=O)N[C@@H](C)c2ccc(-n3cc(F)cn3)nc2)CC[C@H](c2nc(C)cc(Nc3cc(C)[nH]n3)n2)CC1` [sulfate, pralsetinib], the “stability of salt solid form to drying” value in data set [1] is on record as “changed”.
For `CO[C@]1(C(=O)N[C@@H](C)c2ccc(-n3cc(F)cn3)nc2)CC[C@H](c2nc(C)cc(Nc3cc(C)[nH]n3)n2)CC1` [sulfates generated from the 1.1 eq. experiments] [pralsetinib], in data set [1], the “stability … to humidification” value is given as “changed form”.

(Values after patent publication US12448366B2, “Solid forms of pralsetinib” (Rigel Pharmaceuticals, Inc., priority 2020, dated 2025).)
